Assay results taken from US20230293517A1, “ANTAGONIST COMPOUNDS” (AdoRx Therapeutics Limited, priority 2020, published 2023).

Legend:
[1] = molecular target: human Adenosine A1 receptor (Homo sapiens (Human), UniProt P30542); assay: Adenosine receptor TR-FRET binding assay (A1); settings: inhibition of binding of 100 nM CA200645, CHO cell membranes
Summary of the method: (§1)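 Ki values come from Cheng–Prusoff conversion of IC50s for displacement of fluorescent antagonist CA200645 from terbium-labelled human adenosine receptors in CHO membranes. Tracer was 30 nM at A2b and 100 nM at the other three subtypes; incubation lasted 2 h at room temperature.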

[2] = molecular target: human Adenosine A2a receptor (Homo sapiens (Human), UniProt P29274); assay: Adenosine receptor TR-FRET binding assay (A2a); settings: inhibition of binding of 100 nM CA200645, CHO cell membranes
Sequence of human Adenosine A2a receptor (P29274 whole entry): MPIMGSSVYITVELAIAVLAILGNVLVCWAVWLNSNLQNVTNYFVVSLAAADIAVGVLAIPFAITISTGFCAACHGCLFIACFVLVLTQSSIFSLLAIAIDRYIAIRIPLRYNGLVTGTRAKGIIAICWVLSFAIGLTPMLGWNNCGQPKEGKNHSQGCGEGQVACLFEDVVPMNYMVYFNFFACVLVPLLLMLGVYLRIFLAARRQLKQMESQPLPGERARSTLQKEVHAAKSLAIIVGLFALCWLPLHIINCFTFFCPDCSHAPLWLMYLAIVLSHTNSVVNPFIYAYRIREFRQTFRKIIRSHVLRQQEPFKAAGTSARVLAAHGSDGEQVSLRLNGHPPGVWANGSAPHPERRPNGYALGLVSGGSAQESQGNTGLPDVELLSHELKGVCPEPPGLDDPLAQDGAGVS
Summary of the method: as §1

[3] = molecular target: human Adenosine A2b receptor (Homo sapiens (Human), UniProt P29275); assay: Adenosine receptor TR-FRET binding assay (A2b); settings: TR-FRET, inhibition of binding of 30 nM CA200645, CHO cell membranes
Sequence of human Adenosine A2b receptor (P29275 whole entry): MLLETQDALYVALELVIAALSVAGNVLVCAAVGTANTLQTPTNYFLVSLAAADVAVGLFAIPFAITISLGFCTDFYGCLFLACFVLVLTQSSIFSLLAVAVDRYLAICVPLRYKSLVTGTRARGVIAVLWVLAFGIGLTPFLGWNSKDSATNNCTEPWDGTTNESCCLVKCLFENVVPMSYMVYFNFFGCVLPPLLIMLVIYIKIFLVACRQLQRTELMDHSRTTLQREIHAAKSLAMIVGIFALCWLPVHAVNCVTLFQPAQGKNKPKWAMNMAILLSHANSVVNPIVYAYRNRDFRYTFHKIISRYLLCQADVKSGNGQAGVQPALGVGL
Summary of the method: as §1

[4] = molecular target: human Adenosine A3 receptor (Homo sapiens (Human), UniProt P0DMS8); assay: Adenosine receptor TR-FRET binding assay (A3); settings: inhibition of binding of 100 nM CA200645, CHO cell membranes
Sequence of human Adenosine A3 receptor (P0DMS8 whole entry): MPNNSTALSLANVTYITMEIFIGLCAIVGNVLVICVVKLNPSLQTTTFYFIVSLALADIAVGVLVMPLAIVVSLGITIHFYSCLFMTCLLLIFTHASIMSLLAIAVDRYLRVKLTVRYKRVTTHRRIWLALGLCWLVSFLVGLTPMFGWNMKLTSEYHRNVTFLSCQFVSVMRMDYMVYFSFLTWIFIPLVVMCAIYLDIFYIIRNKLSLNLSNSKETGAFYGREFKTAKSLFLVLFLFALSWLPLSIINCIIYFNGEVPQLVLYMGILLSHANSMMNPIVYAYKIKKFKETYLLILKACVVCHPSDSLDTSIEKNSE
Summary of the method: as §1

Sequence of human Adenosine A1 receptor (P30542 whole entry): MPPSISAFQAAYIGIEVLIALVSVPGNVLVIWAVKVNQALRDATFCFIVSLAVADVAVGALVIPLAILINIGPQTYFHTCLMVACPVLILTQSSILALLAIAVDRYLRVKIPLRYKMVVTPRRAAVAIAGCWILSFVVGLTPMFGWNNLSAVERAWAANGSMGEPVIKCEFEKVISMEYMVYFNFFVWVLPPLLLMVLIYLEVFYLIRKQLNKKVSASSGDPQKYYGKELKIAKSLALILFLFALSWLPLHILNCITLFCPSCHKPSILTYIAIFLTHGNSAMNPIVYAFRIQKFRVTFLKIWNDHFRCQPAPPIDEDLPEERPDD

Row | SMILES | Ki [1] | Ki [2] | Ki [3] | Ki [4]
1 | Cc1cc(-c2sc(NC(=O)N3CC(=O)N[C@@H](C)C3)nc2-c2cccc(C#N)c2)cc(C)n1 [Example 6.90, (3S)-N-[4-(3-Cyanophenyl)-5-(2,6-dimethyl-4-pyridyl)thiazol-2-yl]-3-methyl-5-oxo-piperazine-1-carboxamide] | 63 nM | 3.16 nM | 10.7 nM | 106 nM
2 | Cc1cc(-c2sc(NC(=O)N3C[C@@H]4C[C@H]3CN4C)nc2-c2cccc(C#N)c2)cc(C)n1 [Example 6.102, (1S,4S)-N-[4-(3-Cyanophenyl)-5-(2,6-dimethyl-4-pyridyl)thiazol-2-yl]-5-methyl-2,5-diazabicyclo[2.2.1]heptane-2-carboxamide] | 64 nM | 7.42 nM | 10.5 nM | 195 nM
3 | Cc1cc(-c2sc(NC(=O)N3CCC4(CC3)CN(C)C(=O)N4)nc2-c2cccc(C#N)c2)cc(C)n1 [Example 6.103, N-[4-(3-Cyanophenyl)-5-(2,6-dimethyl-4-pyridyl)thiazol-2-yl]-3-methyl-2-oxo-1,3,8-triazaspiro[4.5]decane-8-carboxamide] | 61 nM | 0.68 nM | 1.7 nM | 475 nM
4 | Cc1cc(-c2sc(NC(=O)N3CCC4(CN(C)CCO4)C3)nc2-c2cccc(C#N)c2)cc(C(F)F)n1 (centres unmarked) [Example 6.107, N-[4-(3-Cyanophenyl)-5-[2-(difluoromethyl)-6-methyl-4-pyridyl]thiazol-2-yl]-9-methyl-6-oxa-2,9-diazaspiro[4.5]decane-2-carboxamide] | 69 nM | 1.37 nM | 2.3 nM | 156 nM
5 | CC(=O)N=S1(=O)CCN(C(=O)Nc2nc(-c3cccc(C#N)c3)c(-c3cc(C)nc(C)c3)s2)CC1 [Example 8, 1-Acetylimino-N-[4-(3-cyanophenyl)-5-(2,6-dimethyl-4-pyridyl)thiazol-2-yl]-1-oxo-1,4-thiazinane-4-carboxamide] | 59 nM | 1.83 nM | 1.8 nM | 776 nM
6 | Cc1cc(-c2sc(NC(=O)N3CCC4(CC3)CNC4=O)nc2-c2cccc(C#N)c2)cc(CO)n1 [Example 9.1] | 95 nM | 0.78 nM | 7 nM | 1000 nM
7 | Cc1cc(-c2sc(NC(=O)N3CCN(C4COC4)CC3)nc2-c2cccc(C#N)c2)cc(CO)n1 [Example 9.4] | 410 nM | 4.19 nM | 20.1 nM | 1540 nM
8 | Cc1cc(-c2sc(NC(=O)N3CCC4(CC3)C(=O)N(C)C(=O)N4C)nc2-c2cccc(C#N)c2)cc(CO)n1 [Example 9.5] | 174 nM | 2.28 nM | 7.5 nM | 699 nM
9 | Cc1cc(-c2sc(NC(=O)N3CCNC[C@@H]3C)nc2-c2cccc(C#N)c2)cc(C)n1 [Example 13.4, (2S)-N-[4-(3-Cyanophenyl)-5-(2,6-dimethyl-4-pyridyl)thiazol-2-yl]-2-methyl-piperazine-1-carboxamide] | 54 nM | 5.13 nM | 19.6 nM | 54 nM
10 | Cc1cc(-c2sc(NC(=O)N3CCNC[C@@H]3CO)nc2-c2cccc(C#N)c2)cc(C)n1 [Example 13.5, (2R)-N-[4-(3-Cyanophenyl)-5-(2,6-dimethyl-4-pyridyl)thiazol-2-yl]-2-(hydroxymethyl)piperazine-1-carboxamide] | 84 nM | 9.87 nM | 18.8 nM | 226 nM
11 | Cc1cc(-c2sc(NC(=O)N3CCNC[C@H]3CO)nc2-c2cccc(C#N)c2)cc(C)n1 [Example 13.6, (2S)-N-[4-(3-Cyanophenyl)-5-(2,6-dimethyl-4-pyridyl)thiazol-2-yl]-2-(hydroxymethyl)piperazine-1-carboxamide] | 220 nM | 16.8 nM | 79.7 nM | 133 nM
12 | Cc1cc(-c2sc(NC(=O)N3CC4CC(C3)N4)nc2-c2cccc(C#N)c2)cc(C)n1 [Example 13.7, N-[4-(3-Cyanophenyl)-5-(2,6-dimethyl-4-pyridyl)thiazol-2-yl]-3,6-diazabicyclo[3.1.1]heptane-3-carboxamide] | 174 nM | 7.46 nM | 13.7 nM | 256 nM
13 | Cc1cc(-c2sc(NC(=O)N3CCC4(COCCN4)C3)nc2-c2cccc(C#N)c2)cc(C)n1 (centres unmarked) [Example 13.9] | 225 nM | 2.01 nM | 14.9 nM | 646 nM
14 | Cc1cc(-c2sc(NC(=O)N3CCN[C@H](C(F)(F)F)C3)nc2-c2cccc(C#N)c2)cc(C)n1 [Example 13.10, (3S)-N-[4-(3-Cyanophenyl)-5-(2,6-dimethyl-4-pyridyl)thiazol-2-yl]-3-(trifluoromethyl)piperazine-1-carboxamide] | 61 nM | 4.56 nM | 14.5 nM | 573 nM
15 | Cc1cc(-c2sc(NC(=O)N3CC4CCC(C3)N4)nc2-c2cccc(C#N)c2)cc(C)n1 [Example 13.11, N-[4-(3-Cyanophenyl)-5-(2,6-dimethyl-4-pyridyl)thiazol-2-yl]-3,8-diazabicyclo[3.2.1]octane-3-carboxamide] | 132 nM | 12.9 nM | 58.4 nM | 226 nM
16 | COc1cc(-c2sc(NC(=O)N3CCS(=N)(=O)CC3)nc2-c2cccc(C#N)c2)cc(C)n1 [Example 16, N-[4-(3-Cyanophenyl)-5-(2-methoxy-6-methyl-4-pyridyl)thiazol-2-yl]-1-imino-1-oxo-1,4-thiazinane-4-carboxamide] | 55 nM | 2.71 nM | 2.4 nM | 334 nM
17 | COc1cc(-c2sc(NC(=O)N3CC[S+]([O-])CC3)nc2-c2cccc(C#N)c2)cc(C)n1 [Example 16.3] | 82 nM | 5.71 nM | 6.2 nM | 383 nM
18 | Cc1cc(-c2sc(NC(=O)N3CC[S+]([O-])CC3)nc2-c2cccc(C#N)c2)cc(C#N)n1 [Example 16.5] | 87 nM | 11.9 nM | 19.9 nM | 325 nM

Stronger by Ki [1], values ahead:

Row | Ki [1] | Ki [2] | Ki [3] | Ki [4] | SMILES
19 | 29 nM | 1.05 nM | 4.6 nM | 560 nM | Cc1cc(-c2sc(NC(=O)N3CCC(S(C)(=O)=O)CC3)nc2-c2cccc(C#N)c2)cc(C)n1 [Example 6.95, N-[4-(3-Cyanophenyl)-5-(2,6-dimethyl-4-pyridyl)thiazol-2-yl]-4-methylsulfonyl-piperidine-1-carboxamide]
20 | 30 nM | 1.1 nM | 3 nM | 853 nM | CC(=O)N1C[C@H]2C[C@@H]1CN2C(=O)Nc1nc(-c2cccc(C#N)c2)c(-c2cc(C)nc(C)c2)s1 [Example 6.101, (1R,4R)-5-Acetyl-N-[4-(3-cyanophenyl)-5-(2,6-dimethyl-4-pyridyl)thiazol-2-yl]-2,5-diazabicyclo[2.2.1]heptane-2-carboxamide]
21 | 13 nM | 0.26 nM | 3.6 nM | 956 nM | Cc1cc(-c2sc(NC(=O)N3CCC(C)(C#N)C3)nc2-c2cccc(C#N)c2)cc(C2COC2)n1 (centres unmarked) [Example 6.110, 3-Cyano-N-[4-(3-cyanophenyl)-5-[2-methyl-6-(oxetan-3-yl)-4-pyridyl]thiazol-2-yl]-3-methyl-pyrrolidine-1-carboxamide]
22 | 8 nM | 0.2 nM | 1 nM | 337 nM | Cc1cc(-c2sc(NC(=O)N3CCC(N)(C#N)CC3)nc2-c2cccc(C#N)c2)cc(C)n1 [Example 7.2, 4-Amino-4-cyano-N-[4-(3-cyanophenyl)-5-(2,6-dimethyl-4-pyridyl)thiazol-2-yl]piperidine-1-carboxamide]
23 | 47 nM | 0.61 nM | 5.3 nM | 2020 nM | Cc1cc(-c2sc(NC(=O)N3CC4(COC4)C3)nc2-c2cccc(C#N)c2)cc(CO)n1 [Example 9, N-[4-(3-Cyanophenyl)-5-[2-(hydroxymethyl)-6-methyl-4-pyridyl]thiazol-2-yl]-2-oxa-6-azaspiro[3.3]heptane-6-carboxamide]
24 | 29 nM | 1.11 nM | 8.1 nM | 1510 nM | Cc1cc(-c2sc(NC(=O)N3CC[S+]([O-])CC3)nc2-c2cccc(C#N)c2)cc(CO)n1 [Example 9.3]
25 | 12 nM | 0.51 nM | 2.9 nM | 369 nM | Cc1cc(-c2sc(NC(=O)N3CCC(C#N)CC3)nc2-c2cccc(C#N)c2)cc(CO)n1 [Example 9.6]
26 | 7 nM | 0.2 nM | 3.1 nM | 1240 nM | Cc1cc(-c2sc(NC(=O)N3CC4(CCOC4)C3)nc2-c2cccc(C#N)c2)cc(C(C)(C)O)n1 [Example 12.1, N-[4-(3-Cyanophenyl)-5-[2-(1-hydroxy-1-methyl-ethyl)-6-methyl-4-pyridyl]thiazol-2-yl]-6-oxa-2-azaspiro[3.4]octane-2-carboxamide]
27 | 47 nM | 2.38 nM | 12.3 nM | 41 nM | Cc1cc(-c2sc(NC(=O)N3CCNC[C@H]3C)nc2-c2cccc(C#N)c2)cc(C)n1 [Example 13.8, (2R)-N-[4-(3-Cyanophenyl)-5-(2,6-dimethyl-4-pyridyl)thiazol-2-yl]-2-methyl-piperazine-1-carboxamide]
28 | 45 nM | 2.71 nM | 7.4 nM | 47 nM | Cc1cc(-c2sc(NC(=O)N3CCN[C@H](C)C3)nc2-c2cccc(C#N)c2)cc(C(F)(F)F)n1 [Example 14, (3R)—N-[4-(3-Cyanophenyl)-5-[2-methyl-6-(trifluoromethyl)-4-pyridyl]thiazol-2-yl]-3-methyl-piperazine-1-carboxamide]
29 | 16 nM | 0.38 nM | 1.4 nM | 135 nM | Cc1cc(-c2sc(NC(=O)N3CC[S+]([O-])CC3)nc2-c2cccc(C#N)c2)cc(C(F)(F)F)n1 [Example 16.2]
